In patent publication US9833497B2, “Human originated EGF domain proteins and use of the same” (CHENGDU SOURCEBIO LIMITED-LIABILITY COMPANY, priority 2013, dated 2017):

What was measured:
Format in all cases: cell-based
[1] = system: Citrobacter diversus; experiment: MIC against Gram-negative bacteria: Citrobacter diversus; conditions: 5×10^5 CFU/mL
Method in brief: (§1)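 Bacteria grown in LB at 37° C with shaking to McFarland 0.5, pelleted and resuspended in fresh LB, then seeded at 5×10^5 CFU/mL per well. Purified recombinant human EGF domain proteins were two-fold serially diluted in triplicate and plates shaken at 37° C, 175 rpm. MIC is the lowest protein concentration with no bacterial growth.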

[2] = system: Pseudomonas aeruginosa; experiment: MIC against Gram-negative bacteria: Pseudomonas aeruginosa; conditions: 5×10^5 CFU/mL
Method in brief: as §1

[3] = system: Moraxella catarrhalis; experiment: MIC against Gram-negative bacteria: Moraxella catarrhalis; conditions: 5×10^5 CFU/mL
Method in brief: as §1

[4] = system: E. coli DH5α; experiment: Antibacterial activity: MIC and growth curve against E. coli DH5α in 96-well plate; conditions: minimal inhibitory concentration against E. coli DH5α; 96-well plate, 5×10^5 CFU/mL, 37° C., judged after 8 h
Method in brief: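 Log-phase DH5α (OD600 about 0.5, 37° C, 185 rpm in LB) was pelleted, resuspended in fresh LB and seeded at 5×10^5 CFU/mL with recombinant protein at 50, 25 and 12.5 μg/mL (two-fold series), in triplicate. Plates were shaken at 175 rpm, 37° C, and OD600 was read every 30 min. MIC was the lowest concentration with no growth.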

[5] = system: Proteus vulgaris; experiment: MIC against Gram-negative bacteria: Proteus vulgaris; conditions: 5×10^5 CFU/mL
Method in brief: as §1

[6] = system: Enterobacter cloacae; experiment: MIC against Gram-negative bacteria: Enterobacter cloacae; conditions: 5×10^5 CFU/mL
Method in brief: as §1

[7] = system: Proteus mirabilis; experiment: MIC against Gram-negative bacteria: Proteus mirabilis; conditions: 5×10^5 CFU/mL
Method in brief: as §1

[8] = system: Aeromonas hydrophila; experiment: MIC against Gram-negative bacteria: Aeromonas hydrophila; conditions: 5×10^5 CFU/mL
Method in brief: as §1

[9] = system: Klebsiella pneumonia; experiment: MIC against Gram-negative bacteria: Klebsiella pneumonia; conditions: 5×10^5 CFU/mL
Method in brief: as §1

[10] = system: E. coli BL21; experiment: MIC against Gram-negative bacteria: E. coli BL21; conditions: 5×10^5 CFU/mL
Method in brief: as §1

[11] = system: Serratia marcescens; experiment: MIC against Gram-negative bacteria: Serratia marcescens; conditions: 5×10^5 CFU/mL
Method in brief: as §1

[12] = Citrobacter diversus, 10 h cultivation at 37° C.
[13] = Pseudomonas aeruginosa, 10 h cultivation at 37° C.
[14] = Moraxella catarrhalis, 10 h cultivation at 37° C.
[15] = Proteus vulgaris, 10 h cultivation at 37° C.
[16] = Enterobacter cloacae, 10 h cultivation at 37° C.
[17] = Proteus mirabilis, 10 h cultivation at 37° C.
[18] = Aeromonas hydrophila, 10 h cultivation at 37° C.
[19] = Klebsiella pneumonia, 10 h cultivation at 37° C.
[20] = E. coli BL21, 10 h cultivation at 37° C.
[21] = Serratia marcescens, 10 h cultivation at 37° C.
[22] = 10 h cultivation at 37° C., two-fold serial dilution

PRT1451 (EARWCSECHSNATCTEDEAVTTCTCQEGFTGDGLTCV; listed as Homo sapiens)
12.5 µg/mL: MIC against M. catarrhalis [3, 14] | MIC against P. vulgaris [5, 15] | MIC against P. mirabilis [7, 17] | MIC against A. hydrophila [8, 18] | MIC against K. pneumonia [9, 19] | MIC against E. coli BL21 [10, 20] | MIC against S. marcescens [11, 21]
25 µg/mL: MIC against C. diversus [1, 12] | MIC against P. aeruginosa [2, 13] | MIC [4] | MIC against E. cloacae [6, 16]

PRT735 (GEENCNVNNGGCAQKCQMVRGAVQCTCHTGYRLTEDGHTCQ; listed as Homo sapiens)
50 µg/mL: MIC C. diversus ([1]; 96-well plate, 37° C., 10 h) | MIC P. vulgaris ([5]; 96-well plate, 37° C., 10 h) | MIC E. coli BL21 ([10]; 96-well plate, 37° C., 10 h)
25 µg/mL: MIC M. catarrhalis ([3]; 96-well plate, 37° C., 10 h) | MIC A. hydrophila ([8]; 96-well plate, 37° C., 10 h) | MIC K. pneumonia ([9]; 96-well plate, 37° C., 10 h) | MIC S. marcescens ([11]; 96-well plate, 37° C., 10 h)
12.5 µg/mL: MIC P. aeruginosa ([2]; 96-well plate, 37° C., 10 h) | MIC [4] | MIC E. cloacae ([6]; 96-well plate, 37° C., 10 h) | MIC P. mirabilis ([7]; 96-well plate, 37° C., 10 h)

PRT1399 (ARVQCPDQCSGHGTYLPDTGLCSCDPNWMGPDCS; listed as Homo sapiens)
25 µg/mL: MIC against C. diversus [1, 12] | MIC against E. cloacae [6, 16] | MIC against P. mirabilis [7, 17] | MIC against S. marcescens [11, 21]
12.5 µg/mL: MIC against P. aeruginosa [2, 13] | MIC against M. catarrhalis [3, 14] | MIC [4] | MIC against P. vulgaris [5, 15] | MIC against A. hydrophila [8, 18] | MIC against K. pneumonia [9, 19] | MIC against E. coli BL21 [10, 20]

PRT1108 (DLNECNSNPCQSNGECVELSSEKQYGRITGLPSSFSYHEASGYVCICQPGFTGIHCE; listed as Homo sapiens)
12.5 µg/mL: MIC C. diversus [1, 22] | MIC P. aeruginosa [2, 22] | MIC P. mirabilis [7, 22] | MIC K. pneumonia [9, 22] | MIC E. coli BL21 [10, 22] | MIC S. marcescens [11, 22]
50 µg/mL: MIC [4]
25 µg/mL: MIC M. catarrhalis [3, 22] | MIC P. vulgaris [5, 22] | MIC E. cloacae [6, 22] | MIC A. hydrophila [8, 22]

PRT183 (ECIPHNGCRHGTCSTPWQCTCDEGWGGLFCD; listed as Homo sapiens)
25 µg/mL: MIC (μg/mL) M. catarrhalis ([3]; M. catarrhalis, 10 h cultivation at 37° C.) | MIC (μg/mL) P. vulgaris ([5]; P. vulgaris, 10 h cultivation at 37° C.) | MIC (μg/mL) A. hydrophila ([8]; A. hydrophila, 10 h cultivation at 37° C.) | MIC (μg/mL) K. pneumonia ([9]; K. pneumonia, 10 h cultivation at 37° C.)
12.5 µg/mL: MIC (μg/mL) C. diversus ([1]; C. diversus, 10 h cultivation at 37° C.) | MIC (μg/mL) P. aeruginosa ([2]; P. aeruginosa, 10 h cultivation at 37° C.) | MIC [4] | MIC (μg/mL) E. cloacae ([6]; E. cloacae, 10 h cultivation at 37° C.) | MIC (μg/mL) P. mirabilis ([7]; P. mirabilis, 10 h cultivation at 37° C.) | MIC (μg/mL) E. coli BL21 [10, 20] | MIC (μg/mL) S. marcescens ([11]; S. marcescens, 10 h cultivation at 37° C.)

PRT1258 (GRTCIETCAVNNGGCDRTCKDTATGVRCSCPVGFTLQPD; listed as Homo sapiens)
50 µg/mL: MIC against C. diversus ([1]; Citrobacter diversus, 96-well plate, 37° C., 10 h) | MIC against P. aeruginosa ([2]; Pseudomonas aeruginosa, 96-well plate, 37° C., 10 h) | MIC against P. mirabilis ([7]; Proteus mirabilis, 96-well plate, 37° C., 10 h)
25 µg/mL: MIC against P. vulgaris ([5]; Proteus vulgaris, 96-well plate, 37° C., 10 h) | MIC against A. hydrophila ([8]; Aeromonas hydrophila, 96-well plate, 37° C., 10 h) | MIC against K. pneumonia ([9]; Klebsiella pneumonia, 96-well plate, 37° C., 10 h) | MIC against E. coli BL21 ([10]; E. coli BL21, 96-well plate, 37° C., 10 h)
12.5 µg/mL: MIC against M. catarrhalis ([3]; Moraxella catarrhalis, 96-well plate, 37° C., 10 h) | MIC [4] | MIC against E. cloacae ([6]; Enterobacter cloacae, 96-well plate, 37° C., 10 h) | MIC against S. marcescens ([11]; Serratia marcescens, 96-well plate, 37° C., 10 h)

PRT490 (CASAPCRNGGVCREGWNRFICDCIGTGFLGRVCE; listed as Homo sapiens)
12.5 µg/mL: MIC against M. catarrhalis ([3]; 96-well plate, 37° C., 10 h) | MIC against K. pneumonia ([9]; 96-well plate, 37° C., 10 h)
50 µg/mL: MIC against P. vulgaris ([5]; 96-well plate, 37° C., 10 h) | MIC against A. hydrophila ([8]; 96-well plate, 37° C., 10 h) | MIC against E. coli BL21 ([10]; 96-well plate, 37° C., 10 h)
25 µg/mL: MIC against C. diversus ([1]; 96-well plate, 37° C., 10 h) | MIC against P. aeruginosa ([2]; 96-well plate, 37° C., 10 h) | MIC [4] | MIC against E. cloacae ([6]; 96-well plate, 37° C., 10 h) | MIC against P. mirabilis ([7]; 96-well plate, 37° C., 10 h) | MIC against S. marcescens ([11]; 96-well plate, 37° C., 10 h)
